According to patent US8889887B2, “Pentamethine cyanine fluorescent dyes, preparation methods and uses thereof” (Dalian University of Technology, priority 2011, dated 2014):
Several values for one entry are separate records, joined by “and”; a condition that tells them apart may be missing. Equal entries are not always repeated. Structures can show the parent of a compound that is named as a salt.

Key:
MCF-7 cells = assay: Fluorescence imaging of stained cells under laser confocal scanning microscopy; assay type: cell-based
Procedure: The compounds 4 and 7 (12 μL, 5 μM) in PBS buffer were added into a 6-well plate with incubated MCF-7 cells, and then the plate was incubated for 30 minutes in a cell incubator of 37° C. and 5% CO2. The plate was rinsed with PBS for 5 min×3 times, fresh culture medium was added thereto, and the cells were observed under laser confocal scanning microscopy (Leica, TCS-SP2, Germany). Typical region was selected, the traditional Cy5 was excited at 633 nm and 7 was excited at 514 nm, the cells were observed under oil immersion lens (1000×) for three times.
(§1) MCF-7 cells and Hela cells were inoculated on a 6-well plate and cultured for 24 hours at 37° C. and 5% CO2. Then, the dye was added in a final concentration of 5 μM, and the plate was incubated at 37° C. for 30 min. The culture medium was moved off, and the plate was rinsed with PBS for two times. Fresh culture medium 1200 μL was added and the fluorescence was excited.
as §1, with “Then, H2O2 133.3 µL was added in a final concentration of 1 mM/L, and the plate was incubated at 37° C. for 2 hours. The culture medium was moved off, and the plate was rinsed with PBS for two times. Fresh culture medium 1200 μL was added and then” for “Then,”, “μM,” for “μM, and”
MCF-7 cells and Hela cells were inoculated on a 6-well plate and cultured for 24 hours at 37° C. and 5% CO2. The culture medium was moved off, and the plate was rinsed with PBS for two times. Appropriate amount of 70% ethanol was added and then the plate was incubated at 37° C. for 30 min. Ethanol for fixing was moved off, and the plate was rinsed with PBS for two times. PBS 1200 μL was added and then the dye was added in a final concentration of 5 μM, the plate was incubated at 37° C. for 30 min and the fluorescence was excited.

[1] = Viscosity experiments: absorption and emission spectra in glycerol-ethanol mixtures; assay type: physicochemical
Procedure: (§2) Firstly, DMSO solutions of 4 and 7 having a concentration of 1.0×10^−3 M were prepared, respectively. The stock solution of […] was added into 10 mL glycerol-ethanol mixture, and ultrasonicated to remove bubbles. The solution stayed for 1 hour, and then absorption and emission spectra therefore were measured by using UV-visible spectrophotometer and fluorescence spectrophotometer, and fluorescence lifetime of solution with different viscosity was detected as well. UV-visible spectrophotometer, model: Hp8453; fluorescence spectrophotometer model: FP-6500; Fluorescence lifetime equipment: Horiba Jobin Yvon Fluoromax-4-p.
(§3) Glycerol-ethanol mixture was a mixture of glycerol and ethanol, Vglycerol: Vethanol were 1:9, 2:8, 3:7, 4:6, 5:5, 6:4, 7:3, 8:2 and 9:1.

[2] = Fluorescence lifetime in solutions with different viscosity; assay type: physicochemical; conditions: FIG. 5A, 1 μM
Procedure: as §2, §3

[3] = UV absorption and fluorescence emission spectra in different solvents; assay type: physicochemical; conditions: for λabs1 maximum absorption wavelength / λabs2 maximum absorption wavelength / λem1 maximum emission wavelength / λem2 maximum emission wavelength: 1 μM; for Φ1 fluorescence quantum yield / Φ2 fluorescence quantum yield: reference Rhodamine B in ethanol
Procedure: Firstly, stock solutions of 4 and 7 in DMSO were prepared respectively. Then sample solutions of 1 μM were prepared by diluting the mother liquors with corresponding chromatography grade solvent. UV absorption and fluorescence emission spectra of the sample solutions in different solvents were measured at room temperature, the results were shown in FIGS. 1A and 1B, respectively.

CCN1/C(=C/C=C(C=C(C#N)C#N)/C=C/C2=[N+](CC)c3ccccc3C2(C)C)C(C)(C)c2ccccc21 [compound 7, 1,5-di(1-N-ethyl-3,3-dimethyl-2,3-H— lindoline)-3-(2,2-dicyanovinyl)-1,3,5-pentatriene chloride quaternary ammonium salt cyanine dye]
ratio value of fluorescence (red 665 / green 565 nm channel) (MCF-7 cells; MCF-7 cells stood 4 hours at room temperature after incubation (dying)): ratio value of the probe was between (1) and (2) | ratio value of fluorescence (red 665 / green 565 nm channel) (MCF-7 cells; MCF-7 cells treated with hydrogen peroxide (1 mM), apoptosis induced): ratio value was increased | ratio value of fluorescence (red 665 / green 565 nm channel) (MCF-7 cells; normal live MCF-7 cells, 5 μM, 30 minutes): ratio value was small | UV absorption with variation of solution viscosity ([1]; FIG. 4A, 1 μM): kept constant | sensitivity of fluorescence intensity to solvent viscosity ([1]; glycerol-ethanol mixtures): quite sensitive to solvent viscosity | fluorescence lifetime at 665 nm with increase of solution viscosity [2]: obviously elongated | Δλ1 Stokes Shift (λem1 − λabs1) ([3]; DMSO): 47 nm | Δλ2 Stokes Shift (λem2 − λabs2) ([3]; DMSO): 31 nm | Δλ3 Stokes Shift (λem2 − λabs1) ([3]; DMSO): 148 nm | ε1 molar extinction coefficient ([3]; DMSO): 45000 L/cm/mol | ε2 molar extinction coefficient ([3]; DMSO): 118200 L/cm/mol | λabs1 maximum absorption wavelength ([3]; DMSO): 522 nm | λabs2 maximum absorption wavelength ([3]; DMSO): 639 nm | λem1 maximum emission wavelength ([3]; DMSO): 569 nm | λem2 maximum emission wavelength ([3]; DMSO): 670 nm | Φ1 fluorescence quantum yield ([3]; DMSO): 0.0057 | Φ2 fluorescence quantum yield ([3]; DMSO): 0.0113 | Δλ1 Stokes Shift (λem1 − λabs1) ([3]; acetonitrile): 48 nm | Δλ2 Stokes Shift (λem2 − λabs2) ([3]; acetonitrile): 25 nm | Δλ3 Stokes Shift (λem2 − λabs1) ([3]; acetonitrile): 148 nm | ε1 molar extinction coefficient ([3]; acetonitrile): 59400 L/cm/mol | ε2 molar extinction coefficient ([3]; acetonitrile): 112000 L/cm/mol | λabs1 maximum absorption wavelength ([3]; acetonitrile): 513 nm | λabs2 maximum absorption wavelength ([3]; acetonitrile): 635 nm | λem1 maximum emission wavelength ([3]; acetonitrile): 561 nm | λem2 maximum emission wavelength ([3]; acetonitrile): 661 nm | Φ1 fluorescence quantum yield ([3]; acetonitrile): 0.0017 | Φ2 fluorescence quantum yield ([3]; acetonitrile): 0.0019 | Δλ1 Stokes Shift (λem1 − λabs1) ([3]; dichloromethane): 56 nm | Δλ2 Stokes Shift (λem2 − λabs2) ([3]; dichloromethane): 16 nm | Δλ3 Stokes Shift (λem2 − λabs1) ([3]; dichloromethane): 160 nm | ε1 molar extinction coefficient ([3]; dichloromethane): 49700 L/cm/mol | ε2 molar extinction coefficient ([3]; dichloromethane): 113500 L/cm/mol | λabs1 maximum absorption wavelength ([3]; dichloromethane): 512 nm | λabs2 maximum absorption wavelength ([3]; dichloromethane): 656 nm | λem1 maximum emission wavelength ([3]; dichloromethane): 568 nm | λem2 maximum emission wavelength ([3]; dichloromethane): 672 nm | Φ1 fluorescence quantum yield ([3]; dichloromethane): 0.0016 | Φ2 fluorescence quantum yield ([3]; dichloromethane): 0.006 | Δλ1 Stokes Shift (λem1 − λabs1) ([3]; ethanol): 56 nm | Δλ2 Stokes Shift (λem2 − λabs2) ([3]; ethanol): 27 nm | Δλ3 Stokes Shift (λem2 − λabs1), pseudo-Stokes Shift ([3]; ethanol): 158 nm | ε1 molar extinction coefficient ([3]; ethanol): 53100 L/cm/mol | ε2 molar extinction coefficient ([3]; ethanol): 125600 L/cm/mol | λabs1 maximum absorption wavelength ([3]; ethanol): 510 nm | λabs2 maximum absorption wavelength ([3]; ethanol): 641 nm | λem1 maximum emission wavelength ([3]; ethanol): 566 nm | λem2 maximum emission wavelength ([3]; ethanol): 668 nm | Φ1 fluorescence quantum yield ([3]; ethanol): 0.0022 | Φ2 fluorescence quantum yield ([3]; ethanol): 0.0048 | sensitivity to solvent polarity ([3]; low-viscosity solvents of different polarity): insensitive to solvent polarity | Δλ1 Stokes Shift (λem1 − λabs1) ([3]; methanol): 59 nm | Δλ2 Stokes Shift (λem2 − λabs2) ([3]; methanol): 25 nm | Δλ3 Stokes Shift (λem2 − λabs1) ([3]; methanol): 156 nm | ε1 molar extinction coefficient ([3]; methanol): 49000 L/cm/mol | ε2 molar extinction coefficient ([3]; methanol): 122000 L/cm/mol | λabs1 maximum absorption wavelength ([3]; methanol): 509 nm | λabs2 maximum absorption wavelength ([3]; methanol): 636 nm | λem1 maximum emission wavelength ([3]; methanol): 568 nm | λem2 maximum emission wavelength ([3]; methanol): 665 nm | Φ1 fluorescence quantum yield ([3]; methanol): 0.0022 | Φ2 fluorescence quantum yield ([3]; methanol): 0.0031 | absorption peak, longer wavelength ([3]; solvent not stated): 655 nm | absorption peak, shorter wavelength ([3]; solvent not stated): 510 nm | emission peak, longer wavelength ([3]; solvent not stated): 668 nm and 665 nm | emission peak, shorter wavelength ([3]; solvent not stated): 565 nm | Δλ1 Stokes Shift (λem1 − λabs1) ([3]; water): 50 nm | Δλ2 Stokes Shift (λem2 − λabs2) ([3]; water): 28 nm | Δλ3 Stokes Shift (λem2 − λabs1) ([3]; water): 135 nm | ε1 molar extinction coefficient ([3]; water): 31000 L/cm/mol | ε2 molar extinction coefficient ([3]; water): 52400 L/cm/mol | λabs1 maximum absorption wavelength ([3]; water): 520 nm | λabs2 maximum absorption wavelength ([3]; water): 627 nm | λem1 maximum emission wavelength ([3]; water): 570 nm | λem2 maximum emission wavelength ([3]; water): 655 nm | Φ1 fluorescence quantum yield ([3]; water): 0.0006 | Φ2 fluorescence quantum yield ([3]; water): 0.0028
